Test results taken from paper PMC9181987, “Disclosing the Potential of Fluorinated Ionic Liquids as Interferon-Alpha 2b Delivery Systems” (Nanomaterials, 2022).

What was measured:
[1] = Dynamic light scattering: aggregate size and polydispersity index; assay type: physicochemical; settings: 150 mM NaH2PO4, 25°C
Method: These concentrations were chosen to comprise two different aggregates of each FIL, above the 1st CAC and the 3rd CAC. […] Therefore, 20 μL was transferred into a quartz cell of 10 mm pathlength and measured at 25 °C.
Moreover, the polydispersity index (PdI) was obtained by DLS which determines the heterogeneity of the sample in the function of the size.

[2] = set-up: method as in doi:10.5772/INTECHOPEN.96336, doi:10.1016/j.molliq.2022.119285, PMID 25580898; settings: cited from earlier work
[3] = set-up: method as in earlier work; settings: Water, 25°C, ref [1]; cited from earlier work
IFN-α 2b [4] = molecular target: T1, IFN-α 2b (Homo sapiens, UniProt P01563); assay: Intrinsic fluorescence spectroscopy of IFN-α 2b with FILs (λmax shift, Stern–Volmer quenching); assay type: binding
T1 construct: purchased Sigma-Aldrich SRP4595; host or cells: E. coli
Method: The concentrations were chosen to cover the range where the different aggregates of the FILs are formed. Samples, equilibrated for 30 min at room temperature, and 400 μL of each solution were transferred to a quartz cuvette of 10 mm pathlength and excited at 280 nm, collecting the fluorescence intensity in a wavelength range of 300 to 450 nm. The width of the excitation and emission slit was set to 5 nm for both cases. The spectra of FIL solutions (blanks) were discounted to the spectra of FIL + protein samples to avoid any possible effect of FIL concentration increment in the fluorescence intensity.
A very well-known equation, the Stern–Volmer, was used to characterize the quenching occurring in this region. This equation characterizes the collisional quenching that can occur when the excited state of the fluorophore is disabled due to contact with another molecule (quencher), without chemical alteration. Therefore, the collisional quenching is described by:(11) F0/F=1+K[Q]=1+kqτ0[Q] where F0 and F are the fluorescence intensities of the fluorophore in the absence and presence of the quencher, respectively, K is the Stern–Volmer quenching constant, kq is the biomolecular quenching constant, τ0 is the unquenched lifetime, and [Q] is the quencher concentration. […] This value gives information on the sensitivity of the fluorophore to a quencher.

IFN-α 2b [5] = molecular target: T1, IFN-α 2b; assay: Microscale thermophoresis (MST) binding affinity of FILs with labelled IFN-α 2b; settings: for Kd: labelled IFN-α 2b 2.7 μM, 5 mM NaH2PO4 pH 7.4, 25 °C, ± = Kd confidence of the fitting
Method: Several dilution series of 16 samples of 20 μL were prepared in triplicate for each studied system. All the solutions were prepared in the buffer of the protein, 5 mM of NaH2PO4 (pH = 7.4), and PCR tubes. In the first tube (1 out 16) 20 μL of FIL stock solution was added at twofold the maximum concentration defined for each assay. In the remaining 15 tubes, 10 μL of buffer was added, followed by the series dilution of the FIL. […] The selected concentrations cover the range where the distinct CACs are formed in each FIL. The excitation power was determined by a pre-test and set to 20% whereas the MST power was set to medium (standard). The assays were executed in standard capillaries and triplicates. The results were processed using the MO.Affinity Analysis v2.3 software (NanoTemper Technologies, Munich, Germany).
In the process of labelling, commonly, one amine per protein is labelled, statistically distributing the position of the dye. […] As explained in the experimental section, in each run of MST, a maximum concentration is chosen and is consecutively diluted in 16 capillaries.

T1 sequence (P01563 24-188): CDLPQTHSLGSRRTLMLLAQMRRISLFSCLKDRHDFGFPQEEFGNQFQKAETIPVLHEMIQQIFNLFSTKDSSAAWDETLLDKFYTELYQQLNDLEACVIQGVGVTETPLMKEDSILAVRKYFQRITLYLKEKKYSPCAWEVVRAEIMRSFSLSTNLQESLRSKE

For `CCn1cc[n+](C)c1.O=S(=O)([O-])C(F)(F)C(F)(F)C(F)(F)C(F)(F)F` [[C2C1Im][C4F9SO3], 1-Ethyl-3-methylimidazolium perfluorobutanesulfonate], the “Polydispersity index (PdI)” value ([1]; 29.3 mM FIL) is listed as 1.000, the “Polydispersity index (PdI)” value ([1]; 243.8 mM FIL) is listed as 0.157 and the miscibility in water [2] is listed as “full miscibility in water”. For the same compound, the “First CAC” value [3] was 14.55 mmol/kg, the “First CAC (wFIL)” value [3] was 0.0060 and the “Gibbs free energy of aggregation ΔG0agg, First CAC” value [3] was -5.9 kcal/mol. For the same compound, the “Gibbs free energy of aggregation ΔG0agg, Second CAC” value [3] was -4.97 kcal/mol, the “Gibbs free energy of aggregation ΔG0agg, Third CAC” value [3] was -6.57 kcal/mol and the “Second CAC” value [3] was 38.54 mmol/kg. For the same compound, the “Second CAC (wFIL)” value [3] was 0.0158, the “Third CAC” value [3] was 81.03 mmol/kg and the “Third CAC (wFIL)” value [3] was 0.0332. The “ionization degree α, First CAC” value [3] was 0.79, the “ionization degree α, Second CAC” value [3] was 0.84 and the “ionization degree α, Third CAC” value [3] was 0.29. The “Stern–Volmer quenching constant K” value (IFN-α 2b [4]; IFN-α 2b 20 μg/mL, region ~14 mM to ~110 mM FIL, 5 mM NaH2PO4 pH 7.4, excitation 280 nm) was 0.0106 mM⁻¹, the “biomolecular quenching constant kq” value (IFN-α 2b [4]; from K and τ0 of IFN-α 2b) was 3.59e+09 M⁻¹ s⁻¹ and the Kd (IFN-α 2b [5]; assay 30 − 9.2 × 10^−4 mM FIL) was 0.136 ± 0.117 mM. For the same compound, the Kd (IFN-α 2b [5]; assay 80 − 2.4 × 10^−3 mM FIL) was 7.53 ± 5.61 mM, the Kd (IFN-α 2b [5]; assay 160 − 4.9 × 10^−3 mM FIL) was 40.5 ± 29.5 mM and the “binding to IFN-α 2b (MST)” value (IFN-α 2b [5]; range of concentrations under the 1st CAC, only FIL monomers) was “no binding was detected”.
